What was measured:
[1] = target: T1, Aurora kinase A (Homo sapiens, UniProt O14965); experiment: Inhibition of recombinant Aurora A (unknown origin) using myelin basic protein as substrate incubated for 30 mins in presence or absence of DTT by [gamma-33P]-ATP based radioactive filter binding assay
T1 sequence (O14965 whole entry): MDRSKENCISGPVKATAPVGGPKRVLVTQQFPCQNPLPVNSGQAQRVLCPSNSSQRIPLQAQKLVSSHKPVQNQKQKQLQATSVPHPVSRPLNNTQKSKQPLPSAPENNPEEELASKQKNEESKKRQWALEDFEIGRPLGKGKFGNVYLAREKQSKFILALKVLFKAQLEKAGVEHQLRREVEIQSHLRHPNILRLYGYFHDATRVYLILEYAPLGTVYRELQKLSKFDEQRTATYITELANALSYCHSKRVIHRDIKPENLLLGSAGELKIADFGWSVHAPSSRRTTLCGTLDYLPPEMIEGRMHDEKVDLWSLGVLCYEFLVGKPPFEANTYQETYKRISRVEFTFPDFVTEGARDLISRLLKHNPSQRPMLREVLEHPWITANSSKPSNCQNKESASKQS

[2] = target: T1, Aurora kinase A; experiment: Inhibition of recombinant Aurora A (unknown origin) using myelin basic protein as substrate incubated for 30 mins in presence of DTT by [gamma-33P]-ATP based radioactive filter binding assay
[3] = target: T1, Aurora kinase A; experiment: Inhibition of recombinant Aurora A (unknown origin) using myelin basic protein as substrate incubated for 30 mins in presence of DTT by [gamma-33P]-ATP based radioactive filter binding assay

Row | Compound | IC50 [1] [µM] | IC50 [2] [µM] | IC50 [3] [µM]
1 | CCCNC(=O)CCNC(=O)[C@H](O)C(C)(C)COC(=O)CC(=O)OC[C@@H]1O[C@H](n2cnc3c(N)ncnc32)[C@@H](O)[C@H]1O | 1300 | – | –
2 | Nc1ncnc2c1ncn2[C@H]1O[C@@H](CNC(=O)CC(=O)O)[C@H](O)[C@@H]1O | 910 | – | –
3 | CCCNC(=O)CCNC(=O)[C@H](O)C(C)(C)COC(=O)CCCC(=O)OC[C@@H]1O[C@H](n2cnc3c(N)ncnc32)[C@@H](O)[C@H]1O | 542 | – | –
4 | CNC(=O)CCNC(=O)[C@H](O)C(C)(C)COC(=O)CCC(=O)OC[C@@H]1O[C@H](n2cnc3c(N)ncnc32)[C@@H](O)[C@H]1O | 1400 | – | –
5 | CNC(=O)[C@H](O)C(C)(C)COC(=O)CCC(=O)OC[C@@H]1O[C@H](n2cnc3c(N)ncnc32)[C@@H](O)[C@H]1O | 1300 | – | –
6 | CCCNC(=O)CCNC(=O)[C@H](O)C(C)(C)COC(=O)CC(=O)NC[C@@H]1O[C@H](n2cnc3c(N)ncnc32)[C@@H](O)[C@H]1O | 1100 | – | –

These reach a lower IC50 [1]. Values come first.

Row | IC50 [1] [µM] | IC50 [2] [µM] | IC50 [3] [µM] | Compound
7 | 497 | – | – | CCCNC(=O)CCNC(=O)[C@H](O)C(C)(C)COC(=O)CCC(=O)OC[C@@H]1O[C@H](n2cnc3c(N)ncnc32)[C@@H](O)[C@H]1O
8 | 430 | – | – | CC(C)(C)COC(=O)CCC(=O)OC[C@@H]1O[C@H](n2cnc3c(N)ncnc32)[C@@H](O)[C@H]1O
9 | 420 | – | – | Nc1ncnc2c1ncn2[C@H]1O[C@@H](COC(=O)CC(=O)O)[C@H](O)[C@@H]1O
10 | 160 | – | – | CCNC(=O)CCNC(=O)[C@@H](O)C(C)(C)COP(=O)(O)OP(=O)(O)OC[C@@H]1O[C@H](n2cnc3c(N)ncnc32)[C@@H](O)[C@H]1OP(=O)(O)O
11 | 83 | 117 | 117 | CC(C)(COC(=O)CCC(=O)OC[C@@H]1O[C@H](n2cnc3c(N)ncnc32)[C@@H](O)[C@H]1O)[C@@H](O)C(=O)NCCC(=O)NCCS
12 | 17 | – | – | CC(C)(COP(=O)(O)OP(=O)(O)OC[C@@H]1O[C@H](n2cnc3c(N)ncnc32)[C@@H](O)[C@H]1O)[C@H](O)C(=O)NCCC(=O)NCCS
13 | 5 | – | – | CC(C)(COP(=O)(O)OP(=O)(O)OC[C@@H]1O[C@H](n2cnc3c(N)ncnc32)[C@@H](O)[C@H]1OP(=O)(O)O)[C@H](O)C(=O)NCCC(=O)NCCS

— ChEMBL document CHEMBL4699544, “Design and synthesis of Coenzyme A analogues as Aurora kinase A inhibitors: An exploration of the roles of the pyrophosphate and pantetheine moieties” (Bioorg Med Chem, 2020)
